How the values were obtained:
Type in all cases: cell-based, human
galectin-3 = test: RT-PCR and Western blotting of galectin-3 after siRNA transfection; details: MKN-28 cells, siRNA 5 and 10 nmol/L, 48 hrs after transfection
Description: (A) mRNA and protein levels of galectin-3 and fascin-1 in human gastric cancer MKN-28 cells after transfection with scrambled siRNA (scRNA) or galectin-3 siRNA at two different concentrations (5 and 10 nmol/L). Total RNA and protein obtained from the cells harvested 48 hrs after the transfection were analyzed by RT-PCR and Western blotting. β-actin was used as a loading control. (B) Immunocytochemical analysis of scRNA or galectin-3 siRNA-transfected MKN-28 cells by DAPI (blue), anti-fascin-1 FITC (green) and anti-F-actin Texas Red (red) was detected with a confocal microscope. Bars represent a length of 10 μm. (C and D) A histogram depicting the migration of galectin-3 silenced cells. The results of the migration assay are presented with a statistical significance (P<0.0005) (C), and in cell photographs (D). (E) Expression levels of galectin-3 and fascin-1 in SNU-638 cells were determined by Western blotting after transfection with pcDNA3.1/NT-GFP-Galectin-3 and vector control of pcDNA3.1/NT-GFP. β-actin was used as a loading control; […]
(§1) For use in Western blotting and immunoprecipitation, cell lysates were prepared in RIPA buffer containing a protease inhibitor cocktail. […] Proteins were detected by Western Blotting with anti-galectin-3, anti-β-catenin, anti-GSK-3β and anti-TCF-4. […]

fascin-1 [1] = test: RT-PCR and Western blotting of fascin-1 after siRNA transfection in MKN-28 cells
Description: (A) mRNA and protein levels of galectin-3 and fascin-1 in human gastric cancer MKN-28 cells after transfection with scrambled siRNA (scRNA) or galectin-3 siRNA at two different concentrations (5 and 10 nmol/L). Total RNA and protein obtained from the cells harvested 48 hrs after the transfection were analyzed by RT-PCR and Western blotting. β-actin was used as a loading control. (B) Immunocytochemical analysis of scRNA or galectin-3 siRNA-transfected MKN-28 cells by DAPI (blue), anti-fascin-1 FITC (green) and anti-F-actin Texas Red (red) was detected with a confocal microscope. Bars represent a length of 10 μm. (C and D) A histogram depicting the migration of galectin-3 silenced cells. […] (E) Expression levels of galectin-3 and fascin-1 in SNU-638 cells were determined by Western blotting after transfection with pcDNA3.1/NT-GFP-Galectin-3 and vector control of pcDNA3.1/NT-GFP. β-actin was used as a loading control;
(A) Fascin-1 protein expression in MKN-28 cells transfected with scrambled siRNA (scRNA) or fascin-1 siRNA. β-actin was used as a loading control. […] Cell migration was measured by microscopy; […]
as §1

MKN-28 cells [2] = test: Immunocytochemistry (fascin-1, F-actin, cell morphology); details: confocal microscopy
Description: (A) mRNA and protein levels of galectin-3 and fascin-1 in human gastric cancer MKN-28 cells after transfection with scrambled siRNA (scRNA) or galectin-3 siRNA at two different concentrations (5 and 10 nmol/L). Total RNA and protein obtained from the cells harvested 48 hrs after the transfection were analyzed by RT-PCR and Western blotting. β-actin was used as a loading control. (B) Immunocytochemical analysis of scRNA or galectin-3 siRNA-transfected MKN-28 cells by DAPI (blue), anti-fascin-1 FITC (green) and anti-F-actin Texas Red (red) was detected with a confocal microscope. Bars represent a length of 10 μm. (C and D) A histogram depicting the migration of galectin-3 silenced cells. The results of the migration assay are presented with a statistical significance (P<0.0005) (C), and in cell photographs (D). (E) Expression levels of galectin-3 and fascin-1 in SNU-638 cells were determined by Western blotting after transfection with pcDNA3.1/NT-GFP-Galectin-3 and vector control of pcDNA3.1/NT-GFP. β-actin was used as a loading control;
(A) Fascin-1 protein expression in MKN-28 cells transfected with scrambled siRNA (scRNA) or fascin-1 siRNA. β-actin was used as a loading control. (B) Immunocytochemical analysis of MKN-28 cells transfected with scRNA or fascin-1 siRNA by DAPI (blue), anti-fascin-1 FITC (green) and anti-F-actin Texas Red (red) was conducted using confocal microscopy. Bars represent 10 μm in length. (C) Cell migration in fascin-1-silenced MKN-28 cells. Results of the migration assay are presented as a histogram, with statistical significance (P<0.0004). ([…]) (D) Colony formation assay, (E) invasion assay, and (F) wound healing assay of MKN-28 cells were performed with transfected galectin-3 and fascin-1 siRNAs. Results of the colony formation assay and invasion assay are shown as a histogram, with statistical significance (P<0.0005). Cell migration was measured by microscopy;
(§2) Cells cultured in chamber slides were fixed and blocked with 5% bovine serum albumin (BSA) in PBS and then incubated with primary anti-galectin-3, anti-fascin-1, anti-GSK-3β, anti-β-catenin antibodies diluted (1:200) in PBS. The cells were conjugated with the secondary antibodies labeled with FITC, Cy5 (Zymed), or Texas Red-X phalloidin (Invitrogen). The samples were treated with a mounting medium, and analyzed with a confocal microscope (Carl-Zeiss).

MKN-28 cells [3] = test: Transfilter migration assay; details: 20 hours, collagen type 1-coated filters
Description: (§3) Transfilter migration and invasion assays were performed with 8.0-μm pore inserts in a 24-well Transwell. For this assay, MKN-28 and SNU638 cells were transfected overnight with siRNAs. Then, they were isolated and added to the upper chamber of a Transwell with 0.5 mg/mL collagen type 1 (BD Bioscience)-coated filters in migration assay. The invasion assay was performed using 1/15 diluted Matrigel (BD Bioscience)-coated filters at 2×10^4 cells/well. RPMI 1640 supplemented with 10% fetal bovine serum and 1% antibiotics was added to the lower chamber and the cells were allowed to incubate for 20 hours. Migrating and invading cells were quantified after H&E staining. Each experiment was performed in triplicate and mean values are presented. A wound healing assay was performed according to the published protocol (Liang C C, Park A Y, Guan J L. In vitro scratch assay: a convenient and inexpensive method for analysis of cell migration in vitro. Nat Protoc 2007; 2:329-33).

MKN-28 cells [4] = test: Invasion assay (Matrigel-coated filters); details: 20 hours
Description: as §3

MKN-28 cells [5] = test: Colony formation (soft agar growth) assay; details: 3 weeks
Description: A layer of 0.5 mL RPMI 1640 containing 0.5% agar and 5% fetal bovine serum was placed in 24-well plates. After solidification of this bottom layer, cells transfected with galectin-3 and fascin-1 siRNAs (1.25×10^4 per well) were poured into a top layer of 0.25 mL RPMI 1640 containing 0.3% agar and 5% fetal bovine serum. Colonies were scored by microscopic examination after 3 weeks. All samples were prepared in triplicate.

MKN-28 cells [6] = test: Wound healing assay
Description: as §3

β-catenin/TCF-4 = test: Immunoprecipitation and Western blot of GSK-3β, β-catenin and TCF-4 interaction; details: MKN-28 cells, immunoprecipitation
Description: (§4) Whole-cell lysate was used as a positive control. […] Whole-cell lysates were used as a positive control. (C) Chromatin immunoprecipitation assay was performed as described in the Materials and Methods of the Example section. Total genomic DNA on an input lane was used as a control for the PCR reaction. (D) Luciferase activity of TCF4 in lacZ and galectin-3 overexpressing cells. Luciferase assay was performed as described in the Example section. A construct of SP1 consensus was used as a negative control. […] Lamin A/C was used as a nuclear fraction control;
(§5) For use in Western blotting and immunoprecipitation, cell lysates were prepared in RIPA buffer containing a protease inhibitor cocktail. Immunoblotting was performed with anti-galectin-3, anti-fascin-1, anti-GSK-3β, anti-TCF-4 (Santa-Cruz), anti-GSK-3β[pS^[…]] (biosourse), anti-β-catenin and anti-lamin A/C (Cell-Signaling), and anti-β-actin (Sigma). Immunoprecipitation was performed with A/G agarose beads coated with anti-galectin-3 and anti-β-catenin. Proteins were detected by Western Blotting with anti-galectin-3, anti-β-catenin, anti-GSK-3β and anti-TCF-4. Mouse/rabbit IgG was used as a negative control.

fascin-1 promoter = test: Chromatin immunoprecipitation assay on fascin-1 promoter; details: ChIP assay, with or without galectin-3
Description: as §4
Chromatin immunoprecipitation assays were performed using a chIP assay kit (Upstate), according to the manufacturer's instructions. Anti-TCF4, anti-β-catenin, anti-galectin-3, and rabbit IgG were used to immunoprecipitate DNA-containing complexes. Primer was prepared with fascin-1 promoter binding sites: fascin-1 promoter (−1321), 5′-[…]-3′ (SEQ ID NO. 11) and (−1061) 5′-[…]-3′ (SEQ ID NO. 12), followed by performing PCR.

[7] = tested on: phosphorylated GSK-3β, β-catenin; test: Western blotting of nuclear and cytosol fractions; details: MKN-28 cells
Description: as §4, §5

GSK-3β, β-catenin = test: Immunocytochemistry of GSK-3β and β-catenin localization; details: galectin-3-silenced cells, confocal microscope
Description: DAPI was used to figure out the nucleus (blue). Bars represent a 10 μm length;
as §2

fascin-1 [8] = test: Western blot of fascin-1 in galectin-3-overexpressing SNU638 cells; details: SNU638 cells infected with galectin-3 lenti-virus
Description: (§6) (A) Expression levels of galectin-3 and fascin-1 were detected by Western blot analysis in SNU-638 cells which were infected with a lenti-virus containing LacZ or galectin-3 and then transfected with fascin-1 siRNA or scrambled RNA as a negative control. β-actin was used as a loading control. (B and C) These cells were analyzed by migration assay (B) and invasion assay (C), presented as histograms (P<0.0005);
as §5
The full-length human galectin-3 gene cloned in the expression vector pcDNA3.1-NT-GFP-gal3 was amplified by PCR using a primer set of 5′-[…]-3′ (SEQ ID NO. 13) and 5′-[…]-3′ (SEQ ID NO. 14). The PCR product thus obtained was cloned into pcDNA3.1-NT-GFP using the TA cloning method (Invitrogen). […]

SNU638 cells [9] = test: Transfilter migration assay in galectin-3-overexpressing SNU638 cells; details: SNU638 cells infected with galectin-3 lenti-virus
Description: as §6, §3

SNU638 cells [10] = test: Invasion assay in galectin-3-overexpressing SNU638 cells; details: SNU638 cells infected with galectin-3 lenti-virus
Description: as §6, §3

Row | Substance | expression levels of mRNAs and proteins of galectin-3 (galectin-3) | expression levels of mRNAs and proteins of fascin-1 (fascin-1 [1]; galectin-3 siRNA 5 and 10 nmol/L, 48 hrs after transfection) | F-actin localization (MKN-28 cells [2]) | cell morphology (MKN-28 cells [2]) | fascin-1 expression in the cytosol (immunocytochemistry) (MKN-28 cells [2]) | total number of migrated cells / cell migration (MKN-28 cells [3]) | cell invasion (MKN-28 cells [4]) | colony formation (MKN-28 cells [5]) | wound healing (MKN-28 cells [6]) | interaction between GSK-3β and β-catenin (β-catenin/TCF-4) | interaction between β-catenin and TCF-4 (β-catenin/TCF-4) | binding of β-catenin and TCF-4 to the promoter regions of fascin-1 (fascin-1 promoter) | level of phosphorylated GSK-3β [7] | level of β-catenin [7] | localization of GSK-3β (GSK-3β, β-catenin) | localization of β-catenin (GSK-3β, β-catenin) | fascin-1 protein expression (fascin-1 [1]; fascin-1 siRNA, Western blot) | level of fascin-1 protein (fascin-1 [8]) | cell migration increased by galectin-3 overexpression (SNU638 cells [9]) | cell invasion by galectin-3 overexpression (SNU638 cells [10])
1 | 5′-AUAUGAAGCACUGGUGAGGUCUAUG-3′ (listed as RNA, chemistry not given here) [galectin-3 siRNA, siRNA silencing galectin-3, obtained from Invitrogen] | reduction in the expression levels | reduction in the expression levels | appeared only at cell-cell contact areas | became round in shape and did not have any protruding regions | diminished in the cytosol | reduced by almost half | significantly reduced | significantly reduced | significantly reduced | weakened | diminished | lost their binding activity | decreased in both the nucleus and the cytosol | decreased in both the nucleus and the cytosol | located only in cytosol | not detected either in the nucleus or cytosol |  |  |  | 
2 | 5′-UCCAGCAAGAAUGCCAGCUGCU ACU-3′ (listed as RNA, chemistry not given here) [fascin-1 siRNA, siRNA silencing fascin-1, obtained from Invitrogen; called a candidate therapeutic agent] |  |  | appeared only in cell-cell contact areas | changed to a round shape without spikes |  | decreased the migration | significantly reduced | significantly reduced | significantly reduced |  |  |  |  |  |  |  | reduced fascin-1 expression | diminished | significantly reduced | inhibitory effect
